In US12516010B2, “Crystal form of reduced coenzyme Q10 and preparation method therefor” ([…] BIOTECHNOLOGY (HAINAN) CO., LTD, priority 2023, dated 2026):

Legend:
[1] = stability test: storage in a vacuum bag at 25° C. in the dark, HPLC analysis; type: physicochemical
Description: The crystal of reduced coenzyme Q10 obtained in Example 1 and the crystal obtained in Comparative Example 1 were each placed in a vacuum bag, and stored at 25° C. in the dark. The weight ratio of reduced coenzyme Q10 to oxidized coenzyme Q10 was calculated by the HPLC analysis, and the results are shown in Table 1.
Conditions for HPLC Analysis:
• Chromatographic column: (Agilent) ZORBAX Extend C18 4.6×150 mm, 5 um • Mobile phase: mobile phase A: acetonitrile, mobile phase B: isopropanol, mobile phase C: methanol • Detection wavelength: 290 nm • Flow rate: 1.5 mL/min • Column temperature: 35° C. • Injection concentration: 1 mg/mL • Injection volume: 20 μL

[2] = solubility in purified water; type: physicochemical; conditions: 25° C.

SMILES | weight ratio of reduced coenzyme Q10 to oxidized coenzyme Q10: oxidized coenzyme Q10 part ([1]; day 0, vacuum bag) | weight ratio of reduced coenzyme Q10 to oxidized coenzyme Q10: reduced coenzyme Q10 part ([1]; day 0, vacuum bag) | weight ratio of reduced coenzyme Q10 to oxidized coenzyme Q10: oxidized coenzyme Q10 part ([1]; day 15, vacuum bag) | weight ratio of reduced coenzyme Q10 to oxidized coenzyme Q10: reduced coenzyme Q10 part ([1]; day 15, vacuum bag) | weight ratio of reduced coenzyme Q10 to oxidized coenzyme Q10: oxidized coenzyme Q10 part ([1]; day 30, vacuum bag) | weight ratio of reduced coenzyme Q10 to oxidized coenzyme Q10: reduced coenzyme Q10 part ([1]; day 30, vacuum bag) | weight ratio of reduced coenzyme Q10 to oxidized coenzyme Q10: oxidized coenzyme Q10 part ([1]; day 180, vacuum bag) | weight ratio of reduced coenzyme Q10 to oxidized coenzyme Q10: reduced coenzyme Q10 part ([1]; day 180, vacuum bag) | weight ratio of reduced coenzyme Q10 to oxidized coenzyme Q10: oxidized coenzyme Q10 part ([1]; day 360, vacuum bag) | weight ratio of reduced coenzyme Q10 to oxidized coenzyme Q10: reduced coenzyme Q10 part ([1]; day 360, vacuum bag) | solubility in purified water [2] [% by weight]
COc1c(O)c(C)c(C/C=C(\C)CC/C=C(\C)CC/C=C(\C)CC/C=C(\C)CC/C=C(\C)CC/C=C(\C)CC/C=C(\C)CC/C=C(\C)CC/C=C(\C)CCC=C(C)C)c(O)c1OC [Comparative Example 1, reduced coenzyme Q10] | 0.65 | 98.20 | 1.63 | 97.10 | 5.47 | 93.40 | 8.8 | 89.60 | 17.0 | 82.0 | –
COc1c(O)c(C)c(C/C=C(\C)CC/C=C(\C)CC/C=C(\C)CC/C=C(\C)CC/C=C(\C)CC/C=C(\C)CC/C=C(\C)CC/C=C(\C)CC/C=C(\C)CCC=C(C)C)c(O)c1OC [Example 1, reduced coenzyme Q10] | 0.40 | 99.18 | 0.50 | 99.00 | 0.80 | 98.01 | 1.10 | 97.90 | 1.94 | 97.33 | 0.5
COc1c(O)c(C)c(C/C=C(\C)CC/C=C(\C)CC/C=C(\C)CC/C=C(\C)CC/C=C(\C)CC/C=C(\C)CC/C=C(\C)CC/C=C(\C)CC/C=C(\C)CCC=C(C)C)c(O)c1OC [Example 2, reduced coenzyme Q10] | – | – | – | – | – | – | – | – | – | – | 0.5
